# Results reported in patent US20110111016A1, “NON-DNA BASE-CONTAINING POLYNUCLEOTIDE COMPOSITIONS AND THEIR USE FOR THE MODULATION OF IMMUNE RESPONSES” (priority 2009, published 2011).
# Assays:
# [1] = target: T1, human TLR2 (Homo sapiens, UniProt O60603); assay: NF-κB activation (secreted alkaline phosphatase reporter) in HEK293 cells expressing human TLR2; assay type: cell-based; conditions: HEK293/hTLR2 cell line; polynucleotide final concentration 10 μg/mL; 16-20 hours
# T1 construct: host or cells: HEK293
# Method: (§1) Toll-like receptors (TLR) are known to interact with a number of natural and synthetic molecules that can function as immune adjuvants. Examples of these molecules are Poly (I:C) polynucleotides, lipopolysaccharide and CpG-containing polynucleotides. The interaction of non-DNA base-containing polynucleotides (SEQ ID NOs: 1-3) to interact with TLR and induce down-stream signaling was tested by assessing NF-κB activation in HEK293 cells expressing human TLR2, 3, 4, 5, 7, 8 and 9. TLR engagement was determined by measurement of secreted alkaline phosphatase, under the control of a reporter inducible by NF-κB. Appropriate positive controls were used for each TLR. The non-DNA base-containing polynucleotides were dissolved in sterile water at a concentration of 100 μg/mL, and used at a final concentration of 10 μg/mL. HEK293 cells containing the appropriate TLR and NF-κB reporting system (InvivoGen, San Diego, Calif., USA) were placed in wells of 96 well plates (25,000-50,000 cells, in a final volume of 200 μL medium designed for the detection of NF-κB induced secreted alkaline phosphatase expression), and incubated with non-DNA base-containing polynucleotides or positive controls for 16-20 hours. TLR activating activity was determined by measurement of absorbance at 650 nm wavelength using a Coulter AD340C absorbance detector. The results shown are expressed as Optical Density (OD).
# [2] = target: T2, human TLR9 (Homo sapiens, UniProt Q9NR96); assay: NF-κB activation (secreted alkaline phosphatase reporter) in HEK293 cells expressing human TLR9; assay type: cell-based; conditions: HEK293/hTLR9 cell line; polynucleotide final concentration 10 μg/mL; 16-20 hours
# T2 construct: host or cells: HEK293
# T2 sequence (Q9NR96 26-1032): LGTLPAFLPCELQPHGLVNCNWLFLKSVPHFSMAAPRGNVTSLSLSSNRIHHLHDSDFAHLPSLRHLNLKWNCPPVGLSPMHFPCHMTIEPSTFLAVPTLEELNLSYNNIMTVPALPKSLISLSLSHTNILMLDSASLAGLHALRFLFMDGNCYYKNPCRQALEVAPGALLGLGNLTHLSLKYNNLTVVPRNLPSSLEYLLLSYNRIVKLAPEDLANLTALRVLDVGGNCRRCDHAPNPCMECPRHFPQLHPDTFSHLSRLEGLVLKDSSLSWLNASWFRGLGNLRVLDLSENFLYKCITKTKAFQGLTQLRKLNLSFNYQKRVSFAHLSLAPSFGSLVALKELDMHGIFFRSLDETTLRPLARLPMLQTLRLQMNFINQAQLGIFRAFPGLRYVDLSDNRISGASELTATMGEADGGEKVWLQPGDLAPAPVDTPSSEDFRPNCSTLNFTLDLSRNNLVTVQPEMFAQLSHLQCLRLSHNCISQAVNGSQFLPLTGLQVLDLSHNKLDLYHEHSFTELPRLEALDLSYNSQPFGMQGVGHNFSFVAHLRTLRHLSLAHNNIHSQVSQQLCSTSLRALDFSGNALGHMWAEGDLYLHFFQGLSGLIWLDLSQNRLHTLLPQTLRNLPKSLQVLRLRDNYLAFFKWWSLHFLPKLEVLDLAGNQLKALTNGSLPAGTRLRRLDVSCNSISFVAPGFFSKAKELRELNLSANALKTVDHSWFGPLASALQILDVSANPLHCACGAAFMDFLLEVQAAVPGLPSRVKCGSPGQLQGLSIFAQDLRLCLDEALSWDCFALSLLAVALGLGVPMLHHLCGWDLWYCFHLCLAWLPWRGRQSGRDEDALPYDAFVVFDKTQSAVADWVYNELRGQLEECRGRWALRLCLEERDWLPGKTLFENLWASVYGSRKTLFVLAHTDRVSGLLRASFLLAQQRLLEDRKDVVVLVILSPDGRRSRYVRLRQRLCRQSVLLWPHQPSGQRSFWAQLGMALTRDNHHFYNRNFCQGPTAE
# Method: as §1, with “The non-DNA base-containing polynucleotides were dissolved in sterile water at a concentration of 100 μg/mL, and used at a final concentration of 10 μg/mL.” left out
# T1 sequence (O60603 21-784): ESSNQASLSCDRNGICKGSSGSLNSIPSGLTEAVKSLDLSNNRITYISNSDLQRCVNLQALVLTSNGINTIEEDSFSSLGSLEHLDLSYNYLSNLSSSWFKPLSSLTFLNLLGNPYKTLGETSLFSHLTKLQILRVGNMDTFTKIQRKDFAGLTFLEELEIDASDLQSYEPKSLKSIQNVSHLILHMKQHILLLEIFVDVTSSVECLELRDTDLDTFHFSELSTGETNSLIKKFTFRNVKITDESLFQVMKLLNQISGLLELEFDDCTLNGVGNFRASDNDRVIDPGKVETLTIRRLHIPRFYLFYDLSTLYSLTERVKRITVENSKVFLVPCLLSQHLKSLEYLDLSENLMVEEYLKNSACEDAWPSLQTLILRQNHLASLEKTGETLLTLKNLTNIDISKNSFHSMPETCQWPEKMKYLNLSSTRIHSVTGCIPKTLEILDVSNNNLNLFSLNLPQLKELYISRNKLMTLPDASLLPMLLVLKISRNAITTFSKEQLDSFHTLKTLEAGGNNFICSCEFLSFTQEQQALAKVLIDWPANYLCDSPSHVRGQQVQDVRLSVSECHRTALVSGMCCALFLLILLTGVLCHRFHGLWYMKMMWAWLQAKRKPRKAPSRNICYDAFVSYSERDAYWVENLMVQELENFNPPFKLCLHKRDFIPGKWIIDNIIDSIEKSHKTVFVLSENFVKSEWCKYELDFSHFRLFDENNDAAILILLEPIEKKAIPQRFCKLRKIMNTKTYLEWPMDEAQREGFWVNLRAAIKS
Substance,"TLR activation, Optical Density at 650 nm, hTLR2 [1]","TLR activation, Optical Density at 650 nm, hTLR9 [2]"
UUGTUU [SEQ ID NO: 2],0.095,0.090
"NebGGTGNeb (DNA NGGTGN; Nebularine at both ends, sugar and linkages not given here, further chemistry not given here) [SEQ ID NO: 1, 5′-OH, 3′-OH non-DNA base-containing polynucleotide]",0.093,0.074
IIGTII [SEQ ID NO: 3],0.095,0.083
